Measurements reported in patent US20060263802A1 (priority 2003, published 2006).

Key:
Assay type in all cases: binding
[1] = system: human monoclonal antibody CR57
[2] = system: human monoclonal antibody CRJB
[3] = system: human monoclonal antibody CRJB; remark: listed apart in the source
[4] = system: human monoclonal antibody CRJA
[5] = system: human monoclonal antibody CR57; remark: listed apart in the source
[6] = system: human monoclonal antibody CRJA; remark: listed apart in the source

Sequence	Binding of CR57 (10 μg/ml) to looped/cyclic peptide (PEPSCAN-ELISA) [1]	Binding of CRJB to linear peptide (PEPSCAN-ELISA signal) [2]	Binding of CRJB (10 μg/ml) to looped/cyclic peptide (PEPSCAN-ELISA) [3]	Binding of CRJA to linear peptide (PEPSCAN-ELISA signal) [4]	Binding of CR57 to linear peptide (PEPSCAN-ELISA signal) [5]	Binding of CRJA (10 μg/ml) to looped/cyclic peptide (PEPSCAN-ELISA) [6]	Binding of CR57 (10 μg/ml) to looped/cyclic peptide (PEPSCAN-ELISA signal) [1]	Binding of CRJB (10 μg/ml) to looped/cyclic peptide (PEPSCAN-ELISA signal) [3]	Binding of CRJA (10 μg/ml) to looped/cyclic peptide (PEPSCAN-ELISA signal) [6]
LPSKGCLRVGGRCHP	80	119	85	58	77	52			
LQQHMELLESSVIPL	136	134	93	91	106	108			
LRKLVPGFGKAYTIF	92	118	105	116	83	87			
LRLMDGTWVAMQTSN	98	114	72	96	103	92			
LRTVKTTKESLVIIS		104		83	65		89	68	86
LRVGGRCHPHVNGVF	99	143	105	104	104	96			
LSCPNNLVVEDEGCT		117		90	69		72	74	97
LSGFSYMELKVGYIL		132		82	71		72	74	83
LSHLRKLVPGFGKAY	121	139	123	93	96	93			
LVHPLADPSTVFKDG	133	174	116	106	164	108			
LVIISPSVADLDPYD		107		104	85		98	102	117
LVNLHDFRSDEIEHL	1	104	23	106	47	93			
LVPGFGKAYTIFNKT	87	112	58	83	54	58			
LVRKREECLDALESI	105	130	82	107	86	101			
LVVEDEGCTNLSGFS		103		58	76		76	82	104
LVVEELVRKREECLD	68	100	76	65	64	50			
LYKSLKGACKLKLCG	91	136	79	94	93	107			
MAGDPRYEESLHNPY		116		71	64		65	62	71
MDGTWVAMQTSNETK	114	97	82	85	97	90			
MEADAHYKSVRTWNE	69	129	86	78	62	68			
MELKVGYILAIKMNG		141		92	76		71	93	66
MELLESSVIPLVHPL	115	125	100	83	90	94			
MNGFTCTGVVTEAEN		99		87	69		85	118	78
MPENPRLGMSCDIFT		121		107	105		107	87	111
MQSSLLQQHMELLES	72	113	90	113	65	99			
MQTSNETKWCPPDQL	138	132	33	112	104	74			
MSCDIFTNSRGKRAS		110		71	46		71	73	49
MTTKSVSFRRLSHLR	68	116	8	74	59	79			
NEILPSKGCLRVGGR	104	130	111	97	104	105			
NFVGYVTTTFKRKHF		107		88	65		92	98	83
